Measurements reported in US20240307362A1 (priority 2019, published 2024).
Like-named read-outs stand apart in the source and are kept apart here.

Key:
Format in all cases: cell-based
[1] = system: Ba/F3-ERBB2-A775_G776insYVMA; assay: Ba/F3 cell survival assay, ERBB2 A775_G776insYVMA; conditions: Mus musculus, BaF3, 48 h, read-out: BA/F3 (ERBB2 A775_G776 insYVMA) IC50
Protocol: (§1) 293T cells from ATCC were transfected with pBABEpuro expression constructs for mutant EGFR (V769_D770insASV, D770_N771insNPG, N771_P772insH, H773_V774insNPH, E746_A750del, L858R, D770_N771 insSVD C797S, E746_A750del C797S, L858R C797S, L861Q) or mutant ERBB2 (A775_G776insYVMA) and pCL-Eco packaging vector using Fugene-6 transfection reagent from Promega. Plates were incubated at 37° C. for 48 h. Retrovirus was harvested by filtering the media supernatant through a 0.45 μm filter.
(§2) Ba/F3 cells purchased from DSMZ were grown in RPMI+10% FBS+10 ng/mL IL-3 and infected with filtered retroviral supernatant at a 1:2 dilution. Polybrene was added to a concentration of 8 μg/mL, plates were spun for 90 min, and incubated overnight at 37° C. 2 μg/mL puromycin was added to the infected cells 24 h after infection and cells were continually grown in the presence of puromycin and 10 ng/mL IL-3. Following stably expressing Ba/F3 cell lines were generated: Ba/F3-EGFR-V769_D770insASV, Ba/F3-EGFR-D770_N771insNPG, Ba/F3-EGFR-N771_P772insH, Ba/F3-EG, Ba/F3-EGFR-H773_V774insNPH, Ba/F3-EGFR-E746_A750del, Ba/F3-EGFR-L858R, Ba/F3-EGFR-D770_N771 insSVD C797S, Ba/F3-EGFR-E746_A750del C797S, Ba/F3-EGFR-L858R C797S, Ba/F3-EGFR L861Q and Ba/F3-ERBB2-A775_G776insYVMA (Ba/F3—vector-control).
(§3) For cell survival assays, Ba/F3 cells were grown to a density of 1-2 million cells per mL, spun down and resuspended in media without IL-3, and replated at a concentration 200,000-500,000 cells per mL. The cells ectopically expressing WT EGFR plated with 10 ng/mL Millipore Culture grade EGF and Ba/F3 cells containing mutant EGFR or Mutant ERBB2 were cultivated without EGF. The cells ectopically expressing pBABEpuro empty vector were plated with 10 ng/mL IL-3.
(§4) 2 days later, cells were plated in 50 μL in a 384 well plate at a concentration of 4000 cells per well for cells assayed in the absence of IL-3 and 2000 cells per well for cells assayed in the presence of IL-3. 100 nL of compound was added to each well using a 100 nL pin head, and plates were incubated at 37° C. for 48 h.
(§5) Cell viability was measured by adding 20 μL of Cell Titer-Glo Luminescent Cell Viability Reagent diluted 1:3 in PBS. Plates were sealed with Perkin Elmer Top-Seal, inverted several times to mix, and immediately centrifuged at 1000 rpm for 2 min. Plates were incubated in low light conditions for 8-10 min and luminescence was measured.

[2] = system: Ba/F3-EGFR-E746_A750del; assay: Ba/F3 cell survival assay, EGFR E746_A750del; conditions: 48 h, read-out: BA/F3 (EGFR E746_A750del) IC50
Protocol: as §1, §2, §3, §4, §5

[3] = system: Ba/F3-EGFR-V769_D770insASV; assay: Ba/F3 cell survival assay, EGFR V769_D770insASV; conditions: 48 h, read-out: BA/F3 (ASV) IC50
Protocol: as §1, §2, §3, §4, §5

[4] = system: Ba/F3-EGFR-D770_N771 insSVD C797S; assay: Ba/F3 cell survival assay, EGFR D770_N771insSVD C797S; conditions: Ba/F3 EGFR-D770-N771ins_SVD, 48 h, read-out: BA/F3 (EGFR 0770_N771 insSVD C797S) IC50
Protocol: as §1, §2, §3, §4, §5

[5] = system: Ba/F3-EGFR-WT; assay: Ba/F3 cell survival assay, WT EGFR
[6] = system: Ba/F3-EGFR-N771_P772insH; assay: Ba/F3 cell survival assay, EGFR N771_P772insH; conditions: 48 h, read-out: BA/F3 (EGFR N771— P772insH) IC50
Protocol: as §1, §2, §3, §4, §5

[7] = system: PC9 cells; assay: PC9 cell proliferation assay (EGFRex19del); conditions: Homo sapiens, PC-9, 72 h, read-out: PC9 IC50
Protocol: PC9 cells were purchased from ATCC. 400 PC9 cells per well were seeded in growth medium (DMEM, 10% FCS) in a 384-well plate (CORNING #3571). Seed reference plate for time zero determination on the same day. All plates were incubated overnight at 37° C. After 24 hours, test compound were added in 7-step dilution using HP Compound printer and incubated at 37° C. for 72 h. After 3 days, 30 μL/well CTG solution (Promega Cell Titer Glo solution; catalog #G755B and G756B) were added to each well, incubated for 30 minutes and the plate were read on PheraStar. Proliferation is calculated after subtracting time zero luminescence values from day 4 values and comparing to untreated wells. The IC50 values were determined using the four parameter fit.

[8] = system: Ba/F3-EGFR-L858R C797S; assay: Ba/F3 cell survival assay, EGFR L858R C797S; conditions: 48 h, read-out: BA/F3 (EGFR L858R C797S) IC50
Protocol: as §1, §2, §3, §4, §5

[9] = system: Ba/F3-EGFR-D770_N771insNPG; assay: Ba/F3 cell survival assay, EGFR D770_N771insNPG; conditions: Mus musculus, BaF3, 48 h, read-out: BA/F3 (insNPG) IC50
Protocol: as §1, §2, §3, §4, §5

[10] = read-out: BA/F3 (wild type) IC50, cell viability, Cell Titer-Glo, 48 h, with 10 ng/mL EGF, without IL-3

Compound | IC50 [1] [nM] | IC50 [2] [nM] | IC50 [3] [nM] | IC50 [4] [nM] | IC50 [5, 10] [nM] | IC50 [6] [nM] | IC50 [7] [nM] | IC50 [8] [nM] | IC50 [9] [nM] | IC50 ([5]; Mus musculus, BaF3, 48 h, read-out: BA/F3 (wild type) IC50, cell viability, Cell Titer-Glo, 48 h, with 10 ng/mL EGF, without IL-3) [nM]
COc1c(Cl)cccc1Nc1c(-c2ccncc2OCC2(C)CCO2)[nH]c2c1C(=O)NCC2 (single isomer, unassigned; (+)) [Example 48, (+)-3-(3-chloro-2-methoxyanilino)-2-{3-[(2-methyloxetan-2-yl)methoxy]pyridin-4-yl}-1,5,6,7-tetrahydro-4H-pyrrolo[3,2-c]pyridin-4-one] | 12.9 | 0.34 | 11.4 | 16.7 | 350 | 5.13 | 2.1 | 1.28 | 8.52 | 
COc1c(Cl)cccc1Nc1c(-c2ccncc2OCC2OCC2(C)C)[nH]c2c1C(=O)NCC2 (single isomer, unassigned; (+)) [Example 50, (+)-3-(3-chloro-2-methoxyanilino)-2-{3-[(3,3-dimethyloxetan-2-yl)methoxy]pyridin-4-yl}-1,5,6,7-tetrahydro-4H-pyrrolo[3,2-c]pyridin-4-one] | 12.4 | 0.519 | 16.4 | 35.1 | 349 | 7.64 | 2.3 | 2.92 | 9.18 | 
COc1c(Cl)cccc1Nc1c(-c2ccncc2OCCC2CCO2)[nH]c2c1C(=O)NCC2 (single isomer, unassigned; (-)) [Example 26, (−)-3-(3-chloro-2-methoxyanilino)-2-{3-[2-(oxetan-2-yl)ethoxy]pyridin-4-yl}-1,5,6,7-tetrahydro-4H-pyrrolo[3,2-c]pyridin-4-one] | 8.39 | 0.27 | 9.36 | 13.7 | 204 | 3.7 | 1.4 | 1 | 7.64 | 
COc1c(Cl)cccc1Nc1c(-c2ccncc2OC[C@@H]2CCO2)[nH]c2c1C(=O)NCC2 [Example 2, 3-(3-chlor-2-methoxyanilino)-2-{3-[(2S)-oxetan-2-ylmethoxy]pyridin-4-yl}-1,5,6,7-tetrahydro-4H-pyrrolo[3,2-c]pyridin-4-on] | 11.4 | 0.328 | 9.73 | 17.5 |  | 5.59 | 2.31 | 1.53 | 9.76 | 282
